# Test results as given in article PMC12920294, “Optimizing uPAR-targeting radiopeptides for improved tissue distribution: progress towards radionuclide therapy” (European Journal of Nuclear Medicine and Molecular Imaging, 2025).
# Like-named read-outs stand apart in the source and are kept apart here.
# What was measured:
# [1] = type: in vitro ADME; conditions: 1 µM
# Procedure: The ^177Lu-labeled peptides (50 MBq/nmol) were incubated in mouse or human blood plasma (10 MBq/200 µL) over an incubation period of 24 h at 37 °C. Aliquots and control samples of the radiopeptides diluted in saline were analyzed after 1 h, 4 h and 24 h using thin layer chromatography (TLC) as previously reported (Supplementary Material). The distribution coefficients (logD values) of the ^177Lu-labeled peptides (50 MBq/nmol) were determined using a shake-flask method according to a previously published procedure (Supplementary Material).
# Methods: A sample of each radiopeptide (50 MBq/nmol) was added to mouse blood plasma (Lot: 32321, Rockland Immunochemicals Inc., USA) or to human blood plasma (Stiftung Blutspende SRK Aargau-Solothurn, Switzerland) to obtain an activity concentration of 10 MBq/200 µL. The test samples were incubated at 37 °C for up to 24 h. Control samples referred to the radiopeptides which were instead diluted in saline at an activity concentration of 10 MBq/200 µL. Aliquots of each sample (2 µL, ~100 kBq) were taken after 1 h, 4 h and 24 h and investigated by means of thin layer chromatography (TLC). The employed method involved reversed-phase TLC plates (MERCK Analytical Chromatography, TLC Silica gel 60 RP-18 F254s) as stationary phase and ACN/citrate buffer (3:7; v/v; pH 5.5) as mobile phase. After the eluent reached the front line, the TLC plates were dried and exposed to a phosphor screen (Super resolution screen PSR10450013, PerkinElmer) for 1 min. The respective screen was developed using a storage phosphor system (Cyclone Plus, PerkinElmer) and analyzed using the OptiQuant Software (version 5.0, Bright Instrument Co Ltd., PerkinElmer).
# [2] = system: HEK-uPAR xenograft-bearing mice; conditions: mouse, in vivo
# Procedure: Single-photon emission computed tomography/computed tomography (SPECT/CT) experiments were performed using a small-animal SPECT/CT camera (NanoSPECT/CTTM, Mediso Medical Imaging Systems, Budapest, Hungary) as described previously (Supplementary Material). HEK-uPAR xenografted nude mice were scanned at 1 h, 4 h, 24 h […] after injection of the respective radiopeptide (25 MBq, 0.5 nmol, in 100 μL 0.9% NaCl containing 0.05% bovine serum albumin (BSA)) The images were prepared using VivoQuant post-processing software (version 3.5, inviCRO Imaging Services and Software, Boston, USA). A Gauss post-reconstruction filter (full width at half maximum, 1.0 mm) was applied and the scale of activity was set as indicated on the images (minimum value = 0.2 Bq/voxel, maximum value = 20 Bq/voxel). Methods: SPECT/CT experiments were performed with CD1 nude mice (Crl:CD1-Foxn1^nu) approximately 3-9 weeks after HEK-uPAR cell inoculation. The mice were scanned 1 h, 4 h and 24 h post injection (p.i.) of the respective radiopeptide (25 MBq, 0.5 nmol, 100 μL, diluted in 0.9% NaCl containing 0.05% bovine serum albumin (BSA)). Imaging studies were performed using a four-head, multiplexing, multi-pinhole small-animal SPECT/CT camera (NanoSPECT/CT^TM, Mediso Medical Imaging Systems, Budapest, Hungary). Each head was outfitted with a tungsten-based aperture of nine 1.4 mm-diameter pinholes and a thickness of 10 mm. CT scans of 7-9 min duration were followed by SPECT scans of 45-50 min. The images were acquired using Nucline Software (version 10.2, Mediso Ltd., Budapest, Hungary). The real-time CT reconstruction used a cone-beam filtered backprojection. The reconstruction of SPECT data was performed with HiSPECT software (version 1.4.3049, […] GmbH, Göttingen, Germany) using γ-energies of 56.1 keV (± 10%), 112.9 keV (± 10%) and 208.4 keV (± 10%) for lutetium-177. The images were prepared using VivoQuant post-processing software (version 3.5, inviCRO Imaging Services and Software, Boston, USA). A Gauss post-reconstruction filter (full width at half maximum, 1.0 mm) was applied and the scale of activity was set as indicated on the images (minimum value = 0.2 Bq/voxel, maximum value = 20 Bq/voxel).
# physchem = type: physicochemical; conditions: pH 7.4
# Procedure: The ^177Lu-labeled peptides (50 MBq/nmol) were incubated in mouse or human blood plasma (10 MBq/200 µL) over an incubation period of 24 h at 37 °C. Aliquots and control samples of the radiopeptides diluted in saline were analyzed after 1 h, 4 h and 24 h using thin layer chromatography (TLC) as previously reported (Supplementary Material). The distribution coefficients (logD values) of the ^177Lu-labeled peptides (50 MBq/nmol) were determined using a shake-flask method according to a previously published procedure (Supplementary Material). Methods: The radiopeptides (50 MBq/nmol) were diluted in phosphate buffered saline (PBS) pH 7.4 to obtain an activity concentration of 10 MBq/500 µL. A sample of this radiopeptide solution (~0.5 MBq, 25 µL, 0.01 nmol) was added to a mixture of PBS pH 7.4 (1475 µL) and n-octanol (1500 µL). The vials were vortexed vigorously for 1 min followed by centrifugation (560 rcf, 25°C, 6 min) for phase separation. Aliquots were taken from each phase and measured in a γ-counter (Wallac Wizard 1480, PerkinElmer). The distribution coefficients were calculated as the logarithmic value of the ratio of counts per minute (cpm) measured in the n-octanol phase relative to the cpm measured in the PBS phase. The results were listed as average ± SD of the data obtained from 3 independent experiments, each performed with five replicates.
smiles,measurement,setting,value
"Cc1ccc(CCCC(=O)NCCOCCOCCOCCOCCC(=O)NC[C@H](NC(=O)CN2CCN(CC(=O)O)CCN(CC(=O)O)CCN(CC(=O)O)CC2)C(=O)N[C@@H](CC(=O)O)C(=O)N[C@@H](CC2CCCCC2)C(=O)N[C@@H](Cc2ccccc2)C(=O)N[C@H](CO)C(=O)N[C@H](CCCNC(=N)N)C(=O)N[C@@H](Cc2ccc(O)cc2)C(=O)N[C@@H](CC(C)C)C(=O)N[C@@H](Cc2c[nH]c3ccccc23)C(=O)N[C@@H](CO)C(N)=O)cc1 [[^177Lu]Lu-uPAR-14, metal not drawn]","Human blood plasma stability, intact radiopeptide",[1]; 1 h,100 ± 1%
same,"Mouse blood plasma stability, intact radiopeptide",[1]; 1 h,100 ± 1%
same,"Human blood plasma stability, intact radiopeptide",[1]; 4 h,100 ± 1%
same,"Mouse blood plasma stability, intact radiopeptide",[1]; 4 h,97 ± 4%
same,"Human blood plasma stability, intact radiopeptide",[1]; 24 h,97 ± 2%
same,"Mouse blood plasma stability, intact radiopeptide",[1]; 24 h,99 ± 2%
same,SPECT/CT: accumulation in HEK-uPAR xenograft,[2],almost entirely cleared at 24 h p.i.
same,logD,physchem,-0.13 ± 0.08
"Cc1ccc(CCCC(=O)NCCOCCOCCOCCOCCC(=O)NCCCC[C@H](NC(=O)CN2CCN(CC(=O)O)CCN(CC(=O)O)CCN(CC(=O)O)CC2)C(=O)N[C@@H](CC(=O)O)C(=O)N[C@@H](CC2CCCCC2)C(=O)N[C@@H](Cc2ccccc2)C(=O)N[C@H](CO)C(=O)N[C@H](CCCNC(=N)N)C(=O)N[C@@H](Cc2ccc(O)cc2)C(=O)N[C@@H](CC(C)C)C(=O)N[C@@H](Cc2c[nH]c3ccccc23)C(=O)N[C@@H](CO)C(N)=O)cc1 [[^177Lu]Lu-uPAR-11, metal not drawn]","Human blood plasma stability, intact radiopeptide",[1]; 1 h,99 ± 1%
same,"Mouse blood plasma stability, intact radiopeptide",[1]; 1 h,99 ± 1%
same,"Human blood plasma stability, intact radiopeptide",[1]; 4 h,99 ± 1%
same,"Mouse blood plasma stability, intact radiopeptide",[1]; 4 h,99 ± 1%
same,"Human blood plasma stability, intact radiopeptide",[1]; 24 h,95 ± 1%
same,"Mouse blood plasma stability, intact radiopeptide",[1]; 24 h,95 ± 1%
same,SPECT/CT: accumulation in HEK-uPAR xenograft,[2],highest at 1 h p.i. and relatively well retained over the following hours
same,logD,physchem,-0.26 ± 0.09
"Cc1ccc(CCCC(=O)NCCCCCCCC(=O)NCCCC[C@H](NC(=O)CN2CCN(CC(=O)O)CCN(CC(=O)O)CCN(CC(=O)O)CC2)C(=O)N[C@@H](CC(=O)O)C(=O)N[C@@H](CC2CCCCC2)C(=O)N[C@@H](Cc2ccccc2)C(=O)N[C@H](CO)C(=O)N[C@H](CCCNC(=N)N)C(=O)N[C@@H](Cc2ccc(O)cc2)C(=O)N[C@@H](CC(C)C)C(=O)N[C@@H](Cc2c[nH]c3ccccc23)C(=O)N[C@@H](CO)C(N)=O)cc1 [[^177Lu]Lu-uPAR-12, metal not drawn]","Human blood plasma stability, intact radiopeptide",[1]; 1 h,100 ± 1%
same,"Mouse blood plasma stability, intact radiopeptide",[1]; 1 h,100 ± 1%
same,"Human blood plasma stability, intact radiopeptide",[1]; 4 h,99 ± 1%
same,"Mouse blood plasma stability, intact radiopeptide",[1]; 4 h,99 ± 1%
same,"Human blood plasma stability, intact radiopeptide",[1]; 24 h,98 ± 1%
same,"Mouse blood plasma stability, intact radiopeptide",[1]; 24 h,99 ± 1%
same,SPECT/CT: blood retention,[2],substantial blood retention was observed over the entire time of investigation
same,logD,physchem,0.96 ± 0.15
"Cc1ccc(CCCC(=O)NCCOCCOCCOCCC(=O)NCCCC[C@H](NC(=O)CN2CCN(CC(=O)O)CCN(CC(=O)O)CCN(CC(=O)O)CC2)C(=O)N[C@@H](CC(=O)O)C(=O)N[C@@H](CC2CCCCC2)C(=O)N[C@@H](Cc2ccccc2)C(=O)N[C@H](CO)C(=O)N[C@H](CCCNC(=N)N)C(=O)N[C@@H](Cc2ccc(O)cc2)C(=O)N[C@@H](CC(C)C)C(=O)N[C@@H](Cc2c[nH]c3ccccc23)C(=O)N[C@@H](CO)C(N)=O)cc1 [[^177Lu]Lu-uPAR-15, metal not drawn]","Human blood plasma stability, intact radiopeptide",[1]; 1 h,100 ± 1%
same,"Mouse blood plasma stability, intact radiopeptide",[1]; 1 h,100 ± 1%
same,"Human blood plasma stability, intact radiopeptide",[1]; 4 h,99 ± 1%
same,"Mouse blood plasma stability, intact radiopeptide",[1]; 4 h,99 ± 1%
same,"Human blood plasma stability, intact radiopeptide",[1]; 24 h,96 ± 1%
same,"Mouse blood plasma stability, intact radiopeptide",[1]; 24 h,94 ± 2%
same,SPECT/CT: accumulation in HEK-uPAR xenograft,[2],highest at 1 h p.i. and relatively well retained over the following hours
same,logD,physchem,-0.03 ± 0.01
"Cc1ccc(CCCC(=O)NCCOCCOCCOCCOCCOCCC(=O)NCCCC[C@H](NC(=O)CN2CCN(CC(=O)O)CCN(CC(=O)O)CCN(CC(=O)O)CC2)C(=O)N[C@@H](CC(=O)O)C(=O)N[C@@H](CC2CCCCC2)C(=O)N[C@@H](Cc2ccccc2)C(=O)N[C@H](CO)C(=O)N[C@H](CCCNC(=N)N)C(=O)N[C@@H](Cc2ccc(O)cc2)C(=O)N[C@@H](CC(C)C)C(=O)N[C@@H](Cc2c[nH]c3ccccc23)C(=O)N[C@@H](CO)C(N)=O)cc1 [[^177Lu]Lu-uPAR-18, metal not drawn]","Human blood plasma stability, intact radiopeptide",[1]; 1 h,100 ± 1%
same,"Mouse blood plasma stability, intact radiopeptide",[1]; 1 h,100 ± 1%
same,"Human blood plasma stability, intact radiopeptide",[1]; 4 h,99 ± 1%
same,"Mouse blood plasma stability, intact radiopeptide",[1]; 4 h,99 ± 2%
same,"Human blood plasma stability, intact radiopeptide",[1]; 24 h,95 ± 2%
same,"Mouse blood plasma stability, intact radiopeptide",[1]; 24 h,89 ± 3%
same,SPECT/CT: accumulation in HEK-uPAR xenograft,[2],highest at 1 h p.i. and relatively well retained over the following hours
same,logD,physchem,-0.5 ± 0.07
"Cc1ccc(CCCC(=O)NCCOCCOCCOCCOCCC(=O)NCCCC[C@H](NC(=O)CC[C@H](C(=O)O)N2CCN(CC(=O)O)CCN(CC(=O)O)CCN(CC(=O)O)CC2)C(=O)N[C@@H](CC(=O)O)C(=O)N[C@@H](CC2CCCCC2)C(=O)N[C@@H](Cc2ccccc2)C(=O)N[C@H](CO)C(=O)N[C@H](CCCNC(=N)N)C(=O)N[C@@H](Cc2ccc(O)cc2)C(=O)N[C@@H](CC(C)C)C(=O)N[C@@H](Cc2c[nH]c3ccccc23)C(=O)N[C@@H](CO)C(N)=O)cc1 [[^177Lu]Lu-uPAR-17, metal not drawn]","Human blood plasma stability, intact radiopeptide",[1]; 1 h,100 ± 1%
same,"Mouse blood plasma stability, intact radiopeptide",[1]; 1 h,100 ± 1%
same,"Human blood plasma stability, intact radiopeptide",[1]; 4 h,99 ± 1%
same,"Mouse blood plasma stability, intact radiopeptide",[1]; 4 h,97 ± 2%
same,"Human blood plasma stability, intact radiopeptide",[1]; 24 h,96 ± 1%
same,"Mouse blood plasma stability, intact radiopeptide",[1]; 24 h,61 ± 9%
same,SPECT/CT: accumulation in HEK-uPAR xenograft,[2],almost entirely cleared at 24 h p.i.
same,logD,physchem,-1.56 ± 0.03
